How the values were obtained:
[1] = Survival (PFS, OS) of metastatic ccRCC patients in the prospective cohort (SUVEGIL and TORAVA trials), split by sCD146 variation; type: in vivo, human
Text: Eligible patients for SUVEGIL and TORAVA trials were at least 18 years of age and had metastatic clear cell renal cell carcinoma (ccRCC) histologically confirmed, with the presence of measurable disease according to Response Evaluation Criteria in Solid Tumors (RECIST) v1.1. […] Patients were ineligible if they had symptomatic or uncontrolled brain metastases, an estimated lifetime less than 3 months, uncontrolled hypertension or clinically significant cardiovascular events (heart failure, prolongation of the QTinterval), history of other primary cancer. All patients gave written informed consent.
The prospective cohort includes patients from the SUVEGIL and TORAVA trials.
The SUVEGIL trial (clinicaltrial.gov, NCT00943839) was a multicenter prospective single-arm study. […] Courses repeat every 6 weeks in the absence of disease progression or unacceptable toxicity.
The TORAVA trial (clinicaltrial.gov, NCT00619268) was a randomized prospective study. Patient characteristics and results have been previously described (Negrier et al, 2011).
The % variation of plasmatic level of sCD146 was correlated with OS and PFS, defined respectively as the time from inclusion in the trial to death from all causes (for OS) and to progression, treatment cessation, or death (for PFS), censored at last follow-up for those still alive or who have not progressed.
(§1) PFS was defined as the time between blood sample collection and progression, or death from any cause, censoring those alive and progression free at last follow-up. OS was defined as the time from blood sample collection to the date of death from any cause, censoring those alive at last follow-up.
(§2) The % variation of sCD146 between diagnosis and after 1 cycle of suntinib cut-off point was determined at 120%. Kaplan Meier method was used to produce survival curves and analyses of censored data were performed using Cox models.

[2] = PFS of patients in the retrospective validation cohort, split by sCD146 variation; type: in vivo, human; settings: retrospective/confirmation cohort
Protocol: 13 patients from the HEPG (France) (50 mg/day, once daily for four weeks) were analyzed retrospectively.
as §1, §2

[3] = system: HUVEC; experiment: Cell viability/metabolism (XTT) in HUVEC; type: cell-based; settings: 48 h
Protocol: FIG. 7. Regulation of expression of CD146 and angiomotin (Amot) is differently regulated in endothelial cells. […] CD146 (A) and angiomotin (B) were analyzed by qPCR. […] The cell metabolism was measured by XTT assay. […] The cell metabolism was measured by XTT assay. Results are represented as the mean of three independent experiments±SEM. * p<0.05, ** p<0.01, *** p<0.001.
(§3) Fifty microliters of sodium 3′-[1-phenylaminocarbonyl)-3,4-tetrazolium]-bis(4-methoxy-6-nitro) benzene sulfonic acid hydrate (XTT) reagent was added to each well. The assay is based on the cleavage of the yellow tetrazolium salt XTT to form an orange formazan dye by metabolically active cells. The absorbance of the formazan product, reflecting cell viability, was measured at 490 nm. Each assay was performed in quadruplicate.

[4] = system: sCD146; experiment: ELISA of sCD146 protein in 786/786R cell supernatants; type: cell-based; settings: 786R cells; 10 μg/ml, 48 hr
Protocol: D, sCD146 protein in cell supernatants was evaluated by ELISA. […] Results are represented as the mean of three independent experiments±SEM.* p<0.05, ** p<0.01, *** p<0.001.
A, 786 and 786R cells were treated with 10 μg/ml BVZ for 48 hr. sCD146 protein in cell supernatants were evaluated by ELISA. […] Results are represented as the mean of three independent experiments±SEM. * p<0.05, ** p<0.01, *** p<0.001.

[5] = system: 786 cells; experiment: Cell viability/metabolism (XTT) in 786 cells; type: cell-based; settings: sCD146 50 and 100 ng/ml, 48 h
Protocol: FIG. 4. […] The mRNA levels of CD146 total (A), long (B) and short forms (C) and angiomotin (E) were evaluated by qPCR. D, sCD146 protein in cell supernatants was evaluated by ELISA. […] The cell metabolism was measured by XTT assay. Results are represented as the mean of three independent experiments±SEM.* p<0.05, ** p<0.01, *** p<0.001.
as §3

[6] = patients with sCD146 plasmatic level increase ≥120% between diagnosis and first cycle of treatment
[7] = patients with sCD146 variation <120% between diagnosis and first cycle of treatment

With CCN(CC)CCNC(=O)c1c(C)[nH]c(/C=C2\C(=O)Nc3ccc(F)cc32)c1C [sunitinib] the “median PFS” value [1, 6] was 5.7 months, the “median PFS” value [1, 7] was 20.5 months and the “median OS” value ([1]; patients with sCD146 ≥120%) was 11 months. The PFS ([2]; patients with modulation of sCD146 <120%) was 24.8 months, the PFS ([2]; patients with sCD146 ≥120%) was 2.3 months and the “decrease in cell proliferation” value ([3]; HUVEC, 1 or 2 μM) was “about 50%”.
For bevacizumab, the “median OS” value ([1]; patients with sCD146 <120%) was 24.4 months, the “median PFS” value [1, 6] was 10.5 months and the “median PFS” value [1, 7] was 10.7 months. For the same molecule, the “median OS” value ([1]; patients with sCD146 ≥120%) was 24.1 months and the sCD146 secretion [4] was “no increase in sCD146 secretion”.
In the case of “sCD146: soluble form of CD146 generated by shedding of the membrane form; used as recombinant protein in cell assays”, the “effect on sunitinib-dependent decrease of cell metabolism” value ([5]; 786 cells treated with 2.5 or 5 μM sunitinib) is reported as “prevents sunitinib-dependent decreased cell metabolism”, the cell metabolism ([5]; 786 cells) is reported as “increased cell metabolism at both concentrations” and the protection from sunitinib ([3]; HUVEC treated with sunitinib, recombinant sCD146 50 or 100 ng/ml) is reported as “did not protect HUVEC from sunitinib”. For the same molecule, the “proliferation of HUVEC” value ([3]; HUVEC, recombinant sCD146 50 or 100 ng/ml) was “stimulated the proliferation of HUVEC”.

Source: patent US20200232989A1 (UNIVERSITE D'AIX-MARSEILLE, priority 2017, published 2020)
